Experimental data from the supplement of paper PMC10307832.

Key:
Assay in all cases: relative viability (nuclei count vs DMSO), 5 days (fraction); higher = more cells survive
Vorinostat + Tozasertib = compound: O=C(CCCCCCC(=O)Nc1ccccc1)NO [Vorinostat] + Cc1cc(Nc2cc(N3CCN(C)CC3)nc(Sc3ccc(NC(=O)C4CC4)cc3)n2)n[nH]1 [Tozasertib] (partner 0.1 µM)
Procedure, shortened: (§1)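 Medians of duplicate plates are given as relative viability. That measure is the nuclei count in treated wells divided by the count in vehicle wells. Counts were taken on 4× images of lung cancer cell lines in 1536-well plates, 5 days after pin-tool dosing the day after seeding with one drug alone or a fixed anchor-drug dose plus five library-drug doses (not always all listed) in √10 steps.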

Vorinostat + Crizotinib = compound: O=C(CCCCCCC(=O)Nc1ccccc1)NO [Vorinostat] + C[C@@H](Oc1cc(-c2cnn(C3CCNCC3)c2)cnc1N)c1c(Cl)ccc(F)c1Cl [Crizotinib] (partner 1 µM)
Procedure, shortened: as §1

Vorinostat + Dasatinib = compound: O=C(CCCCCCC(=O)Nc1ccccc1)NO [Vorinostat] + Cc1nc(Nc2ncc(C(=O)Nc3c(C)cccc3Cl)s2)cc(N2CCN(CCO)CC2)n1 [Dasatinib] (partner 0.075 µM)
Procedure, shortened: as §1

Vorinostat + Linsitinib = compound: O=C(CCCCCCC(=O)Nc1ccccc1)NO [Vorinostat] + C[C@]1(O)C[C@@H](c2nc(-c3ccc4ccc(-c5ccccc5)nc4c3)c3c(N)nccn32)C1 [Linsitinib] (partner 1 µM)
Procedure, shortened: as §1

Vorinostat + OSI-027 = compound: O=C(CCCCCCC(=O)Nc1ccccc1)NO [Vorinostat] + COc1cccc2cc(-c3nc([C@H]4CC[C@H](C(=O)O)CC4)n4ncnc(N)c34)[nH]c12 [OSI-027] (partner 0.5 µM)
Procedure, shortened: as §1

Row | Cell Line | relative viability (Vorinostat + Tozasertib; first compound 0.253 µM) | relative viability (Vorinostat + Tozasertib; first compound 0.8 µM) | relative viability (Vorinostat + Tozasertib; first compound 2.53 µM) | relative viability (Vorinostat + Tozasertib; first compound 8 µM) | relative viability (Vorinostat + Crizotinib; first compound 0.253 µM) | relative viability (Vorinostat + Crizotinib; first compound 0.8 µM) | relative viability (Vorinostat + Crizotinib; first compound 2.53 µM) | relative viability (Vorinostat + Crizotinib; first compound 8 µM) | relative viability (Vorinostat + Dasatinib; first compound 0.253 µM) | relative viability (Vorinostat + Dasatinib; first compound 0.8 µM) | relative viability (Vorinostat + Dasatinib; first compound 2.53 µM) | relative viability (Vorinostat + Dasatinib; first compound 8 µM) | relative viability (Vorinostat + Linsitinib; first compound 0.253 µM) | relative viability (Vorinostat + Linsitinib; first compound 0.8 µM) | relative viability (Vorinostat + Linsitinib; first compound 2.53 µM) | relative viability (Vorinostat + Linsitinib; first compound 8 µM) | relative viability (Vorinostat + OSI-027; first compound 0.253 µM) | relative viability (Vorinostat + OSI-027; first compound 0.8 µM) | relative viability (Vorinostat + OSI-027; first compound 2.53 µM) | relative viability (Vorinostat + OSI-027; first compound 8 µM)
1 | NCI-H1437 | 0.371 | 0.338 | 0.18 | 0.104 | 0.876 | 0.894 | 0.429 | 0.0993 | 0.459 | 0.183 | 0.152 | 0.137 | 1.19 | 0.789 | 0.138 | 0.0938 | 0.934 | 0.467 | 0.197 | 0.146
2 | HOP-62 | 0.405 | 0.32 | 0.116 | 0.08 | 0.972 | 0.831 | 0.251 | 0.0671 | 0.888 | 0.501 | 0.225 | 0.0813 | 1.17 | 0.769 | 0.528 | 0.0603 | 0.985 | 0.649 | 0.378 | 0.0983
3 | LCLC-97TM1 | 0.19 | 0.158 | 0.159 | 0.149 |  | 0.328 | 0.157 | 0.11 | 0.914 | 0.68 | 0.365 | 0.226 |  | 0.167 | 0.144 | 0.115 | 0.444 | 0.582 | 0.249 | 0.112
4 | NCI-H1975 | 0.762 | 0.484 | 0.118 | 0.077 | 1.04 | 0.679 | 0.174 | 0.134 | 0.407 | 0.32 | 0.162 | 0.0818 | 0.987 | 0.8 | 0.294 | 0.145 | 0.783 | 0.609 | 0.231 | 0.121
5 | NCI-H520 | 0.422 | 0.37 | 0.207 | 0.209 | 0.796 | 0.482 | 0.133 | 0.108 | 0.219 | 0.206 | 0.179 | 0.17 | 1.15 | 0.841 | 0.293 | 0.12 | 0.361 | 0.265 | 0.204 | 0.217
6 | UMC-11 | 0.195 | 0.164 | 0.147 | 0.129 | 0.578 | 0.481 | 0.0587 | 0.0369 | 0.423 | 0.258 | 0.121 | 0.0971 | 1 | 0.6 | 0.164 | 0.0865 | 0.441 | 0.263 | 0.135 | 0.0952
7 | NCI-H2347 | 0.66 | 0.432 | 0.244 | 0.203 | 0.793 | 0.715 | 0.379 | 0.283 | 0.283 | 0.295 | 0.271 | 0.189 | 0.992 | 0.982 | 0.766 | 0.306 | 0.363 | 0.382 | 0.149 | 0.164
8 | CAL-12T | 0.446 | 0.246 | 0.162 | 0.109 | 0.901 | 0.443 | 0.207 | 0.0708 | 0.481 | 0.471 | 0.269 | 0.0806 | 0.923 | 0.759 | 0.563 | 0.147 | 0.814 | 0.746 | 0.292 | 0.0987
